Here are results for 3 compounds from article PMC6127322, “Novel Imidazole and Methoxybenzylamine Growth Inhibitors Affecting Salmonella Cell Envelope Integrity and its Persistence in Chickens” (Scientific Reports, 2018).

One data set deals with Salmonella Enteritidis. The experiment in a line: Dose-response assay (MBC) on Salmonella serovars. The class given is cell-based. To be noted: Salmonella enterica; serovar Enteritidis, M9 broth.
A further data set has as its system Salmonella Saint-Paul. The experiment in a line: Dose-response assay (MBC) on Salmonella serovars. To be noted: serovar Saint-Paul, M9 broth. The class given is cell-based, Salmonella enterica.
In data set [1] the test system is nine Salmonella serotypes. The experiment in a line: Activity spectrum and dose-response across Salmonella serotypes. The class given is cell-based, Salmonella enterica. To be noted: for Effect against the nine Salmonella serotypes: 200 µM, M9 broth; for MBC: Salmonella, read-out: MBCs among the nine serotypes. The method, then:
The 128 SMs inhibiting S. Typhimurium growth (20% or higher) were tested for their antimicrobial effect on nine different Salmonella serovars frequently implicated in foodborne gastroenteritis outbreaks. […] Both screens were performed at 200 µM as described in the primary screening. Growth conditions for each strain are described in Supplementary Table S2.
S. Typhimurium was challenged with a determined concentration of SM as described in the primary screen.

For data set [2], the system named is biofilm embedded S. Typhimurium. The experiment in a line: MBEC high-throughput assay on biofilm. The class given is cell-based, Salmonella enterica subsp. enterica serovar Typhimurium. To be noted: 18 hrs incubation; for MBC on biofilm embedded Salmonella: M9 medium; for Cidal concentration on biofilm relative to planktonic MBC: compared to planktonic dose-response in parallel. The method, then: The antimicrobial efficacy of the four SMs was tested on biofilm embedded S. Typhimurium as previously described. Briefly, 150 µl of an overnight suspension of S. Typhimurium normalized to 0.05 OD600 in LB medium was transferred into each well of a sterile, non-treated, flat bottom 96-well plate. The plate was covered using the lid containing the pegs (Innovotech), sealed with parafilm, and incubated for 36 hrs at 37 °C. […] The plate was incubated for 18 hrs at 37 °C, 110 rpm in the dark. After incubation, the pegs were transferred to a new 96-well plate containing 200 µl of sterile water and sonicated for 60 min at room temperature (Aquasonic model 50HT, VWR). Removal of the biofilm was confirmed by crystal violet staining. The supernatant was ten-fold serial diluted, plated on an agar plate, and incubated at 37 °C for 36 hrs. The lowest SM concentration giving a complete clearance was considered as MBEC. […] In parallel to this experiment, a dose-response assay with planktonic cells was conducted as described above.

In the next data set the test system is S. Typhimurium. The class given is cell-based, Salmonella enterica subsp. enterica serovar Typhimurium. To be noted: lethal dose (2X MBC) on solid medium or repeated exposure to sub-lethal dose (0.75X MBC) in liquid medium.
The subject of data set [3] is S. Typhimurium cell membrane. The experiment in a line: Confocal microscopy, FM4-64 and SYTO9 staining. The class given is cell-based, Salmonella enterica subsp. enterica serovar Typhimurium. To be noted: 5X MBC for 3 hrs, compared to DMSO control. The protocol: An overnight suspension of S. […] The effect of the SMs on S. Typhimurium was assessed using confocal microscopy as previously described. Cells were stained for 45 min using FM4–64 (2 µg/ml; […] Invitrogen). Three microliters of stained bacteria were transferred onto agarose (1.2%) -coated glass slides. Microscopy was performed using a Leica TCS SP6 confocal scanning microscope with FM4–64 (515 nm/640 nm) and SYTO-9 (485 nm/498 nm) filters.

For data set [4], the system named is S. Typhimurium membrane permeability. The experiment in a line: Crystal violet uptake assay. The class given is cell-based, Salmonella enterica subsp. enterica serotype Typhimurium. To be noted: 1 hr, lethal dose (5X MBC); for Reduction of crystal violet uptake: compared to 1% DMSO control. The protocol:
Figure S2. Estimation of the membrane permeability of Salmonella enterica subsp. enterica serotype Typhimurium strain JSG626 after small molecule (SM) treatment. (A) Crystal […]
Treatments were normalized based on 10 μg/ml of crystal violet solution (no uptake […]
different than the 1% DMSO control (P<0.01); n= 9. (B) Loss of 260 nm absorbing materials from S. Typhimurium cell content. 260 nm absorbing materials were measured […]
standard deviation; *: the amount of 260 nm absorbing material in supernatant was […]
Both experiments were performed as previously described (1).
(also on this page, place not known: updtae (%) (ng/µl) Crystal violet 260 nm absorbing material) […]

Another data set relates to chicken red blood cells. The experiment in a line: Hemolytic activity. The class given is cell-based. To be noted: chicken RBCs, 200 µM, 1 hr. The method, then: (§1) Briefly, 200 µl of 10% sheep or chicken RBC suspension was incubated with 1 µl of SMs (200 µM) for 1 hr at 37 °C in a 96-well plate. After incubation, the plate was centrifuged at 3700 X g for 5 min at 4 °C and then placed on ice for five min. One hundred microliters of the supernatant were transferred into a fresh 96-well plate, and the OD was measured at 540 nm. One percent DMSO and 0.1% Triton-100X were used as negative and positive controls, respectively. Percentage hemolysis was calculated as: [(OD540 SM − OD540 DMSO)/(OD540 1X triton − OD540 PBS)] × 100.

The test system of a further data set is sheep red blood cells. The experiment in a line: Hemolytic activity. The class given is cell-based. To be noted: sheep RBCs, 200 µM, 1 hr. The method, then: as §1
In data set [5] the test system is Galleria mellonella larvae. The experiment in a line: Toxicity on G. mellonella larvae. The class given is in vivo. To be noted: uninfected larvae, single treatment with 12.5 µg of SM, 72 hrs. The protocol:
Galleria mellonella larvae (fifth instar stage) were incubated for 12 hrs at 37 °C in the dark. After incubation, only larvae with a white creamy phenotype and a body weight ranging between 225 to 275 mg were selected for the study. […] Larval survival was monitored on 12 hrs intervals. Not treated larvae, larvae treated with the buffer mix, and larvae treated with 12.5 µg of chloramphenicol were used as controls.

Data set [6] relates to S. Typhimurium in Caco-2 cells. The experiment in a line: S. Typhimurium survival in infected cell lines. The class given is cell-based, Salmonella enterica subsp. enterica serotype Typhimurium. To be noted: Salmonella enterica, internalized S. Typhimurium, 24 hrs; for IC50: estimated. The method, then:
(§2) The ability of four SMs to clear S. Typhimurium was evaluated using three cell lines (Caco-2 cells, HD11, and THP-1 cells) as previously described. A multiplicity of infection (MOI) of 10 was used. Infected cells were treated with 1 µl of SMs (final concentration ranged between 100 µM and 6.25 µM) and incubated at 37 °C for 24 hrs in humidified, 5% CO2 incubator. Following incubation, cells were washed once with 1X PBS, lysed with 0.1% Triton-100X, serial ten-fold diluted in 1X PBS, and plated on agar plate. Plates were incubated at 37 °C for 24 hrs to determine the intracellular bacteria. Cells not infected and not treated, and cells infected and treated with 2% DMSO were used as controls.

For data set [7], the system named is S. Typhimurium in HD11 cells. The experiment in a line: S. Typhimurium survival in infected cell lines. The class given is cell-based, Salmonella enterica subsp. enterica serotype Typhimurium. To be noted: Salmonella enterica, internalized S. Typhimurium, 24 hrs; for IC50: estimated. The method, then: as §2
Data set [8] has as its system S. Typhimurium in THP-1 cells. The experiment in a line: S. Typhimurium survival in infected cell lines. The class given is cell-based, Salmonella enterica subsp. enterica serotype Typhimurium. To be noted: Salmonella enterica, internalized S. Typhimurium, 24 hrs; for IC50: estimated. The protocol:
as §2

For data set [9], the system named is Kan^R S. Typhimurium in layer chickens. The class given is in vivo, chicken. To be noted: for Reduction of Salmonella in the ceca: compared to the DMSO group; for Ceca positive for S. Typhimurium after enrichment / Livers positive for S. Typhimurium after enrichment / Spleens positive for S. Typhimurium after enrichment: n = 10 chickens per group.
[10] abbreviates: compared to the DMSO-treated group.

Converted amounts (≈) assume the structure as drawn. Some results are limits rather than exact numbers.

As a reminder, the IC50 is the point on the concentration scale where inhibition reaches its midpoint. As for `CC1CCC(C(C)C)C(OC(=O)Cn2c[n+](CC(=O)OC3CC(C)CCC3C(C)C)c3ccccc32)C1` (stereo not drawn) [SM1], the MBC against Salmonella Enteritidis was 100 µM. The MBC with Salmonella Saint-Paul was 100 µM. In addition, in data set [1], the “Effect against the nine Salmonella serotypes” value was “cidal” and the MBC lay within 50 to 100 µM. For the same compound, in data set [2], the “MBC on biofilm embedded Salmonella” value is recorded as 40 µM and the “Cidal concentration on biofilm relative to planktonic MBC” value is 0.8 X MBC. The “Resistance development of S. Typhimurium” value in the data set on S. Typhimurium is “no resistance was observed”. Besides, the “Membrane phenotype, FM4–64 staining” value in data set [3] is on record as “No signal was detected”. The “Reduction of crystal violet uptake” value in [4] amounted to 1.88 fold. Moreover, the Hemolytic activity in the data set on chicken red blood cells is given as > 50%. Also, the Hemolytic activity in the data set on sheep red blood cells is on record as > 50%. Also, the Larva survival in data set [5] stood at 66%. Further, in data set [6], the MBC came to 25 µM and the IC50 was 12.5 to 25 µM. Besides, in data set [7], the MBC turned out to be 6.25 µM and the half-maximal inhibitory concentration (IC50) was < 3.21 µM. Also, in data set [8], the MBC was found to be 100 µM and the half-maximal inhibitory concentration (IC50) is < 50 µM. In addition, in data set [9], the “Reduction of Salmonella in the ceca” value is “did not show any reduction”, the “Ceca positive for S. Typhimurium after enrichment” value (“Ceca positive for S. Typhimurium” below) is given as 90%, the “Livers positive for S. Typhimurium after enrichment” value (from here on “Livers positive for S. Typhimurium”) is on record as 40% and the “Spleens positive for S. Typhimurium after enrichment” value (“Spleens positive for S. Typhimurium” for short) is given as 50%.

Consider `CCCCCCCCCCCCCCCC[n+]1ccn(CC#N)c1` [SM3], for which the MBC in the data set on Salmonella Enteritidis is 25 µM; against Salmonella Saint-Paul, 50 µM; in [1], 25 to 50 µM; in data set [6], 50 µM; in data set [7], 50 µM; in data set [8] it was 50 µM. The “Effect against the nine Salmonella serotypes” value in [1] was “cidal”. Moreover, in [2], the “MBC on biofilm embedded Salmonella” value stood at 15 µM. Besides, the “Cidal concentration on biofilm relative to planktonic MBC” value in [2] amounted to 0.6 X MBC. In addition, the “Resistance development of S. Typhimurium” value in the data set on S. Typhimurium is reported as “no resistance was observed”. Moreover, the “Membrane phenotype, FM4–64 staining” value in [3] is “No signal was detected”. Moreover, in data set [4], the “Reduction of crystal violet uptake” value was 4.46 fold. For the same compound, the Hemolytic activity entry in the data set with chicken red blood cells is “below 49%”; in the data set on sheep red blood cells it was “below 18%”. In data set [5], this compound yielded a Larva survival of 85%. The values for the half-maximal inhibitory concentration (IC50) in data set [6], in data set [7] and in data set [8] were 12.5 to 25 µM, < 25 µM and 25 to 50 µM, respectively. For the same compound, in data set [9], the “Reduction of Salmonella in the ceca” value is listed as “did not show any reduction”. Besides, the “Ceca positive for S. Typhimurium” value in data set [9] is listed as 80%. For the same compound, the “Livers positive for S. Typhimurium” value in data set [9] was found to be 60%. In [9], the “Spleens positive for S. Typhimurium” value is 50%.

As to `CCOc1cc(/C=N/N=C(N)N)ccc1OCc1ccc(Cl)cc1` [SM5], the MBC against Salmonella Enteritidis is 50 µM (≈ 17.3 µg/mL); against Salmonella Saint-Paul, 50 µM (≈ 17.3 µg/mL); in [1], 25 to 100 µM (≈ 8.67 to 34.7 µg/mL); in data set [6] it was 12.5 µM (≈ 4.34 µg/mL); in data set [7], 25 µM (≈ 8.67 µg/mL); in data set [8], 50 µM (≈ 17.3 µg/mL). For the same compound, the “MBC on biofilm embedded Salmonella” value in data set [2] came to 25 µM (≈ 8.67 µg/mL). The “Resistance development of S. Typhimurium” value in the data set on S. Typhimurium is on record as “no resistance was observed”. Moreover, in [3], the “Membrane phenotype, FM4–64 staining” value is “a bright red spot was detected within every bacterium”. Moreover, the “Increase in permeability (crystal violet uptake)” value in [4] (compared to 1% DMSO-treated cells) was 2.32 fold. In addition, the Hemolytic activity entry in the data set on chicken red blood cells and with sheep red blood cells was “lower than 1%” in each case. In addition, in [5], the Larva survival worked out at 92%. Besides, the IC50 was 6.25 to 12.5 µM in data set [6], < 12.5 µM in data set [7] and < 25 µM in [8]. Besides, the “Reduction in Salmonella population inside the ceca” value in data set [9] (200 µg of SM per day, oral, five days) is listed as “approximately 2.8 log”. Further, in data set [9] (setting [10]), the “Reduction of cecal colonization by Salmonella” value came to 30%. Further, the “Reduction of spleen colonization by Salmonella” value in [9] (setting [10]) was found to be 25%. The “Ceca positive for S. Typhimurium” value in data set [9] stood at 70%. Moreover, in data set [9], the “Livers positive for S. Typhimurium” value is given as 40%. In addition, the “Spleens positive for S. Typhimurium” value in data set [9] is 30%.
